Patent US20250082656A1, “DOSAGE REGIMENS FOR TREATMENT OF DENGUE INFECTION” (Atea Pharmaceuticals, Inc., priority 2022, published 2025)

How the values were obtained:
[1] = Plasma PK after single oral dose of AT-752, monkeys; format: in vivo, cynomolgus monkeys; conditions: monkeys, oral 300 mg/kg or 60 mg/kg
Procedure: Male cynomolgus monkeys were administered 300 mg/kg Compound 2 (AT-752). Blood samples were collected up to 24 hrs. post dose, plasma separated and analyzed for Compound 1 (AT-281), Compound 3 (AT-551), and Compound 6 (AT-273) by LC-MS/MS. Data are express as mean+/−SD (n=3-5/time point). The x-axis is time post the dose measured in hours and the y-axis is the plasma concentration of the metabolites measured in nanomoles/mL). The experimental procedure is provided in Example 14.
Male non-naïve cynomolgus monkeys (Hainan Jingang Laboratory Animal Co. Ltd., China), at least 2 kg body weight, were individually housed during the study in stainless steel mesh cages, provided ad libitum access to RO water, fed twice daily (except on the day of dosing when they were fed once) with ˜60 g Certified Monkey Diet each feed (Beijing Vital Keao Feed Co., Ltd., Beijing, China) and given daily treats of fresh fruit. They (n=5) were administered a dose of Compound 2 (AT-752) at 300 mg/kg in 40% PEG400, 10% solutol HS15, 50% 100 mM citrate buffer, pH 4.5 (v/v) by oral gavage, and blood samples (˜0.5 mL) were collected at 1, 2, 4, 8, 12 and 24 h post dose. Plasma was separated at each time point for pharmacokinetics, and stored at −70° C. […] Separately, three monkeys were given an oral dose of Compound 2 (AT-752) as powder in capsules at 60 mg/kg ([…] (AT-281) equivalent dose of 55 mg/kg), and blood samples collected at 12, 24 and 48 h post dose.
(§1) Pharmacokinetic measurements for FIGS. 11, 12, 13, 14, and 15 were analyzed using LC-MS/MS according to the protocol described herein. Plasma samples were prepared for MS analysis by adding internal standards and extracting with 20 volumes chilled ACN. After vortex (800 rpm for 10 min) and centrifugation (4,000 rpm, 15 min, 4° C.), the supernatants (25 μL) were diluted with an equal volume of H2O, mixed and spun again. After adding internal standards, the PBMC samples (10^6 cells) were lyzed with 300 μL MeOH/H2O (70:30, v/v) and 40 mM dibutylammonium acetate (DBAA), mixed by vortex and centrifuged (12,000 rpm, 15 min, 4° C.). Aliquots of the supernatants (35 μL) were dried under nitrogen and reconstituted in H2O, then mixed and spun again. […] A binary nonlinear gradient with mobile phases A (0.1% formic acid in water) and B (0.1% formic acid in ACN) were used to elute samples at 0.8 mL/min, with a run time of 5 min. […] A binary nonlinear gradient with mobile phases A (0.001% NHr H2O, 0.18 mM DBAA in H2O) and B (10 mM N,N-dimethyl-hexylamine, 3 mM NH4OAc in ACN/H2O (50.50, v/v)) were used to elute samples at 0.5 mL/min, with a run time of 3 min. Standards in 50% MeOH were used for calibration. […] Internal standards (ISS) as described previously (Good et al., Preclinical evaluation of AT-527, a novel guanosine nucleotide prodrug with potent, pan-genotypic activity against hepatitis C virus. PLos One 15:e02271045) were used to correct for variations in recovery.
(§2) Data analysis of the pharmacokinetic data generated according to Example 21 and presented in FIGS. 11, 12, 13, 14, and 15 was analyzed according to the procedure described herein. Plasma concentrations of Compound 1 (AT-281), Compound 3 (AT-551) and Compound 6 (AT-273) were subjected to non-compartmental pharmacokinetic analysis using Phoenix WinNonlin software (version 6.3 or above, Pharsight, Mountain View, CA). The linear/log trapezoidal rule was applied in obtaining the PK parameters.

[2] = test system: DENV-2 D2Y98P; format: in vivo, AG129 mice
[3] = Safety study in humans (SAD and MAD cohorts); format: in vivo, human
Procedure: Safety assessments including adverse events, standard clinical laboratory tests, vital sign measurements, electrocardiograms, and physical examinations were performed.

[4] = Pharmacokinetic study in SAD cohorts; format: in vivo, human; conditions: South/Southeast/East Asian versus mostly Caucasian cohorts, 1000 mg
Procedure: as §1, §2

[5] = SD rat plasma
[6] = Plasma stability, human plasma; conditions: 2 μM, 37° C.
[7] = Plasma stability, cynomolgus monkey plasma; conditions: 2 μM, 37° C.
[8] = MAD 750 mg BID × 4 days plus one dose Day 5, 6 patients
[9] = MAD 750 mg TID × 4 days plus one dose Day 5, 6 patients
[10] = MAD 1000 mg QD × 7 days, 6 patients
[11] = SAD 1000 mg fasting, 6 patients
[12] = SAD 1000 mg, South/Southeast/East Asian origin, 6 patients
[13] = SAD 1500 mg fasting, 6 patients

SMILES: CNc1nc(N)nc2c1ncn2[C@@H]1O[C@H](CO[P@](=O)(N[C@@H](C)C(=O)OC(C)C)Oc2ccccc2)[C@@H](O)[C@@]1(C)F [Compound 2, isopropyl ((R)-(((2R,3R,4R,5R)-5-(2-amino-6-(methylamino)-9H-purin-9-yl)-4-fluoro-3-hydroxy-4-methyltetrahydrofuran-2-yl)methoxy)(phenoxy)phosphoryl)-L-alaninate]
- unusual or adverse clinical signs [1]: no such signs noted
- health scores versus vehicle control group ([2]; Day 4 to Day 9 pi, p<0.001 by t-test): significantly better health scores
- Viremia versus vehicle only group ([2]; Day 6 pi, 1000 mg/kg loading, 500 mg/kg BID 7 days oral, p=0.000014 by t-test): significantly lower than the vehicle only group
- weight loss versus vehicle control mice ([2]; Days 5, 7 and 8 pi, p<0.001 by t-test): significantly reduced weight loss
- spleen viral load versus control group ([2]; by Day 7 pi): not statistically different
- Viremia ([2]; by Day 8 pi, virus still measurable in all surviving controls, p=0.0045): cleared in all treated animals
- survival (Kaplan-Meier) versus vehicle control group ([2]; p=0.0004, Mantel-Cox log-rank test): significantly improved the survival
- Headache, subjects reporting [3, 8]: 1
- Nausea, subjects reporting [3, 8]: 1
- Vomiting, subjects reporting [3, 8]: 1
- Headache, subjects reporting [3, 9]: 0
- Nausea, subjects reporting [3, 9]: 0
- Vomiting, subjects reporting [3, 9]: 0
- Headache, subjects reporting [3, 10]: 0
- Nausea, subjects reporting [3, 10]: 0
- Vomiting, subjects reporting [3, 10]: 0
- Headache, subjects reporting ([3]; SAD 250 mg fasting, 6 patients): 0
- Nausea, subjects reporting ([3]; SAD 250 mg fasting, 6 patients): 0
- Vomiting, subjects reporting ([3]; SAD 250 mg fasting, 6 patients): 0
- Headache, subjects reporting ([3]; SAD 500 mg fasting, 7 patients): 2
- Nausea, subjects reporting ([3]; SAD 500 mg fasting, 7 patients): 0
- Vomiting, subjects reporting ([3]; SAD 500 mg fasting, 7 patients): 0
- Headache, subjects reporting ([3]; SAD 500 mg fed, 7 patients): 4
- Nausea, subjects reporting ([3]; SAD 500 mg fed, 7 patients): 1
- Vomiting, subjects reporting ([3]; SAD 500 mg fed, 7 patients): 0
- Headache, subjects reporting [3, 11]: 1
- Nausea, subjects reporting [3, 11]: 1
- Vomiting, subjects reporting [3, 11]: 1
- Headache, subjects reporting [3, 12]: 0
- Nausea, subjects reporting [3, 12]: 0
- Vomiting, subjects reporting [3, 12]: 0
- Headache, subjects reporting [3, 13]: 2
- Nausea, subjects reporting [3, 13]: 1
- Vomiting, subjects reporting [3, 13]: 2
- tolerability ([3]; healthy subjects, SAD 250-1500 mg and MAD cohorts, oral): well tolerated
- serious adverse events or discontinuations due to adverse events ([3]; healthy subjects, SAD and MAD cohorts): no serious adverse events or discontinuations due to adverse events were reported
- pharmacokinetic ethnic sensitivity [4]: absence of pharmacokinetic ethnic sensitivity
- drug remaining at the first time point (10 min of incubation) [5]: no drug remaining
- % of starting concentration remained after 120 min of incubation [6]: 93.5%
- % of starting concentration remained after 120 min of incubation [7]: 98.2%
